Test results reported in patent publication US20030157516A1, “G protein coupled receptor” (priority 2000, published 2003).
Several values for one entry are separate records, joined by “and”; a condition that tells them apart may be missing. Identical values can stand only once.

Experiments:
[1] = tested on: wild type CHO cells; experiment: [3H]adenine competition binding on wild type CHO membranes; details: 15 nM [3H]adenine
Description: The membranes were prepared as total particulate fractions. […] The culturing medium was removed and the cells were washed twice with ice cold phosphate buffered saline (PBS without Ca^2+ and Mg^2+), scraped from the plates in 50 mM Tris-HCl buffer, pH 7.4, and collected by centrifugation (10 minutes at 16,000 RPM at 4° C.). The cell pellet was re-suspended in hypotonic 5 mM Tris-HCl buffer, pH 7.4, and homogenized with an Ultra Turrax homogenizer (Janker Kunkel, Germany). The homogenate was centrifuged at 18,000 RPM for 20 minutes at 4° C. The final pellet was re-suspended in 50 mM Tris-HCl buffer, pH 7.4 and stored in aliquots at −70° C. A protein determination was performed using the Bradford protein assay (Biorad, Germany) using bovine serum albumin (BSA) as standard.
(§1) Membranes were thawed on ice and diluted in 50 mM HEPES buffer, pH 7.4 supplemented with 10 mM MgCl2 and 1 mM EGTA. […] Both assays were carried out in a final volume of 500 μl, using 18 μg of membrane protein for the transfected CHO cells and 30 μg of membrane protein for the wild type CHO cells for the saturation binding. For competition binding experiments, 15 and 50 μg of membrane protein was used for the transfected and wild type cells, respectively. The reaction was terminated by rapid filtration through Whatman GF/B filters using a Brandel multi-channel cell harvester (96 wells). The filters were washed three times with 3 ml ice cold 50 mM HEPES buffer, pH 7.4, transferred to liquid scintillation vials and 3 ml of scintillation fluid (Ultima Gold MV, Packard, Netherlands) was added. Samples were counted in a β-scintillation counter after at least 6 hours to permit the glass fiber filters to become uniformly translucent.

[2] = molecular target: T1, adenine binding rat receptor (Rattus norvegicus, UniProt Q7TN49); experiment: [3H]adenine competition binding on CHO membranes transiently transfected; details: transfected cells, 15 nM [3H]adenine
T1 construct: expressed in transfected cells; host or cells: CHO cells, transient, lipofectamine PLUS
T1 sequence (Q7TN49 1-304): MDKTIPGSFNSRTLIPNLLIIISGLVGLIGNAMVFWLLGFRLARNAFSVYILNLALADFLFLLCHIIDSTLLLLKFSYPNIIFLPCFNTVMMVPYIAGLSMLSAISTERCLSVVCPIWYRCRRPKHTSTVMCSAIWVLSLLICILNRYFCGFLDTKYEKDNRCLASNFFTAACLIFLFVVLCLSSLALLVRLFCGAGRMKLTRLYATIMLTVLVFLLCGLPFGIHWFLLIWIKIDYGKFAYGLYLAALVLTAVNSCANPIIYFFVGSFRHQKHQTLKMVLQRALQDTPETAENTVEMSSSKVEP
Description: The membranes were prepared as total particulate fractions. The cell lines were cultured to […] on 145 mm petri dishes and treated with 5 mM sodium butyrate, 24 hours before collection. The culturing medium was removed and the cells were washed twice with ice cold phosphate buffered saline (PBS without Ca^2+ and Mg^2+), scraped from the plates in 50 mM Tris-HCl buffer, pH 7.4, and collected by centrifugation (10 minutes at 16,000 RPM at 4° C.). The cell pellet was re-suspended in hypotonic 5 mM Tris-HCl buffer, pH 7.4, and homogenized with an Ultra Turrax homogenizer (Janker Kunkel, Germany). The homogenate was centrifuged at 18,000 RPM for 20 minutes at 4° C. The final pellet was re-suspended in 50 mM Tris-HCl buffer, pH 7.4 and stored in aliquots at −70° C. A protein determination was performed using the Bradford protein assay (Biorad, Germany) using bovine serum albumin (BSA) as standard.
as §1, with “A) Methods—[3H]Adenine binding experiments were performed to characterize wild type cell lines before transfection as well as transiently and permanently transfected cell lines. Membranes” for “Membranes”

[3] = tested on: wild type CHO cells; experiment: [35S]GTPγS binding on wild type CHO membranes; assay type: biochemical
Description: a) Methods—Determination of [^35S ]GTPγS binding to the G-proteins was carried out according to a modified procedure of Lazareno (Methods Mol. Biol., 83:107-116, 1997). These experiments were performed for a first functional evaluation of the receptor on the level of a membrane preparation. […] For testing agonistic activity, 175 μl of diluted membranes was pre-incubated in the buffer described above together with 25 μl of buffer and 25 μl of varying concentrations of the compound in a total volume of 225 μl. After a 20 minute pre-incubation period at 30° C., 25 μl of [^35S]GTPγS was added to a final concentration of 0.25 nM and the assay mixtures were further incubated for 20 minutes at 30° C. […] The amount of bound radioactivity on the filter unit was determined after drying of the filters and scintillant addition (Microscint-O; Packard Company) by liquid scintillation counting. Basal [^35S]GTPγS binding was measured in absence of compounds. Stimulation by agonist was calculated as the percentage increase above basal levels. The sigmoid agonist concentration-response curves were analyzed by non-linear regression using the GraphPad Prism program. The different concentration points were run in duplicates and the reported data were retrieved from independent experiments.

Row | Compound | pIC50 ([1]; mean of n experiments) | pIC50 ([1]; single experiments) | Ki ([2]; mean of n experiments) [µM] | pIC50 ([2]; mean of n experiments) | Ki ([2]; single experiments) | pIC50 ([2]; single experiments) | % stim. ([3]; mean of n experiments) [%] | % stim. ([3]; single experiments) [%] | pEC50 ([3]; single experiments) | Ki ([1]; mean of n experiments) [µM] | IC50 ([2]; mean of n experiments) [µM] | IC50 ([2]; single experiments)
1 | Nc1ncnc2c1ncn2[C@@H]1O[C@H](COP(=O)(O)O)[C@@H](O)[C@H]1O [AMP] | <4 | <4 | 24.5 | 4.41 | 31.9 µM and 20.8 µM and 21.2 µM | 4.29 and 4.47 and 4.46 | 0 | 0 | <4 | – | – | –
2 | Nc1ncnc2nc[nH]c12 [Adenine, adenine] | 6.87 | – | 0.018 | – | 0.011 µM and 0.022 µM and 0.019 µM and 0.02 µM | – | 0 | 0 | <5 | 0.085 | 0.0282 | 0.0174 µM and 0.0363 µM and 0.0309 µM and 0.0331 µM
3 | Cn1cnc2ncnc-2c1N [1-Methyladenine] | <4 | <4 | 4.39 | – | 3.79 µM and 6.06 µM and 3.57 µM | – | 0 | 0 | <4 | – | 7.08 | 6.17 µM and 9.77 µM and 5.75 µM
